{"source": "patent US11008554B2", "about": "(priority 2014, dated 2021)", "biological_target": "recombinant human AChE (Homo sapiens, UniProt P22303, D92N/S572N)", "sequence (P22303 whole entry D92N/S572N, looked up)": "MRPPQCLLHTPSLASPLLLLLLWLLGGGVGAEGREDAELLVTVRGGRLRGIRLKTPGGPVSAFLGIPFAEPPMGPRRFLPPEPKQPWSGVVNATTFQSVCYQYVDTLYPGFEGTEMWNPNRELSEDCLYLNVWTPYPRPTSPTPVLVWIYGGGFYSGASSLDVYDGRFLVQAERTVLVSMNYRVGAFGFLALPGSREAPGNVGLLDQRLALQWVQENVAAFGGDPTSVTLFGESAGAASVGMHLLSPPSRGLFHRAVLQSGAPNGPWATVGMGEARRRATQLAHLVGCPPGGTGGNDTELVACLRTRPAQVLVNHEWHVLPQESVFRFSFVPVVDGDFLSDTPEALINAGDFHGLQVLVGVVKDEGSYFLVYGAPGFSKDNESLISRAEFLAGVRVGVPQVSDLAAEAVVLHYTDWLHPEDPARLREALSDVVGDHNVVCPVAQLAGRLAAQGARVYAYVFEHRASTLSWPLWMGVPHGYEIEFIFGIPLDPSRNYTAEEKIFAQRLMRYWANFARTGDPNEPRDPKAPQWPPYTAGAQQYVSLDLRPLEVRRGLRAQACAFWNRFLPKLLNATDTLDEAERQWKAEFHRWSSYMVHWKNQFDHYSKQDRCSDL", "type": "biochemical"}
{"compound": "CCOP(=O)(OCC)Oc1ccc([N+](=O)[O-])cc1", "note": "[paraoxon]", "values": [{"measurement": "inhibition of AChE enzyme (localized red spot)", "value": "inhibited"}]}
